Experimental data reported in patent US20260150841A1, “PYRIDINE COMPOUNDS FOR COMBATTING DIHYDROOROTATE-DEHYDROGENASE INHIBITOR-RESISTANT PHYTOPATHOGENIC FUNGI” (priority 2022, published 2026).
In brackets after ≈: the same amount, converted by molar mass.

Columns and labels:
Type in all cases: cell-based
[1] = system: Botrytis cinerea mutant H108P; experiment: Activity against Botrytis cinerea in the microtiter test, mutant H108P; settings: Botrytis cinerea, MUTANTH108P, 168 h, read-out: Absolute IC50, H108P, Botrytis cinerea mutant H108P; turbidity at 620 nm after 7 days
Text: (§1) The active substances were formulated separately as a stock solution in dimethyl sulfoxide (DMSO) at a concentration of 10 000 ppm.
(§2) Spontaneous mutants were selected by plating out B. cinerea spores (in the range of 10^7-10^8) on DOB agar plates (3.4 g/l YNB (Becton Dickinson), 10 g/l Ammoniumsulfat, 40 g/l Glucose, 20 g/l Agar), amended with different lethal concentrations of active ingredient. After 7-14 days growing colonies were transferred to DOB agar plates, amended with the same lethal concentrations of active ingredient and then further propagated on Oatmeal agar medium (50 g/l Oatmeal agar (Sigma), 15 g/l Agar (Difco) for sensitivity testing.
(§3) Fungal strains used: • a) Botrytis cinerea (sensitive, wild-type) • b) Various mutants of Botrytis cinerea
(§4) The spores of Botrytis cinerea were harvested with a cotton swab from an Oatmeal agar plate (50 g/l Oatmealagar (Sigma, Art.O-3506), 15 g/l agar, (Difco) and this is dipped in 3 ml of double concentrated DOB-medium (3.4 g/l YNB (Becton Dickinson), 10 g/l Ammoniumsulfat, 40 g/l Glucose, adjusted to pH 7) and the spore suspension is adjusted to a spore density of 3.2×10^4 spores/ml. The compound solutions were diluted from stock solution in (dimethylsulfoxide) DMSO in several steps with sterile deionized water before use. High test concentrations were 50 mg/L (ppm) or 31 mg/L (ppm). Compound solutions were transferred into empty microplates and filled up with an equal amount of spore suspension.
(§5) The antifungal activity was determined by measuring the turbidity of a culture in 96-well microplates in the presence of test compounds after 7 days incubation at 620 nm. A blank value for each concentration (growth media+compound, without spores) are subtracted from the spore suspension. The relative antifungal activity was calculated by comparing the effect of the test compounds with the effect of a DMSO control The results are shown in Table IV (for compounds of general formula I.A), VI (for compounds of general formula I.B), and VIII (for compounds of general formula I.C).
(§6) A compound showing an IC50 (MUT) above the IC50 (WT) and showing an IC50 (MUT) to IC50 (WT) ratio being in a range above 100 is considered unsuitable (“I”) as DHODH inhibitor.
(§7) The absolute IC50-values (concentration of test compound resulting in 50% inhibition of fungal growth) were calculated from the resulting dose-response for each compound and strain.

[2] = system: Botrytis cinerea mutant G111V; experiment: Activity against Botrytis cinerea in the microtiter test, mutant G111V; settings: Botrytis cinerea, MUTANTG111V, 168 h, read-out: Absolute IC50, G111V, Botrytis cinerea mutant G111V; turbidity at 620 nm after 7 days
Text: as §1, §2, §3, §4, §5, §6, §7

[3] = system: Sclerotinia sclerotiorum (sensitive, wild-type); experiment: Activity against Sclerotinia sclerotiorum in tissue culture plate assay with mycelial plugs, wild type; settings: 168 h, % growth after 7 days at 18° C., read-out: Absolute IC50, wild type
Method: Fungal strains used: • a) Sclerotinia sclerotiorum (sensitive, wild-type) • b) Mutants of Sclerotinia sclerotiorum
Pure cultures are grown on DOB-agar medium, (3.4 g/l YNB (Becton Dickinson), 10 g/l Ammoniumsulfat, 40 g/l Glucose) for 5-7 days at 18° C. Mycelial plugs (6 mm diame-ter) taken from the margin of the colonies are used as inoculum for the sensitivity test. 500 μl fungicide-amended DOB medium (3.4 g/l YNB (Becton Dickinson), 10 g/l Ammoniumsulfat, 40 g/l Glucose, adjusted to pH 7) are added to each well of 24-well tissue culture plates. Each well is then inoculated with a mycelial plug, with the myce-lium surface up. Two replicate wells are used for each isolate and fungicide concentration. Growth is assed after 7 days incubation at 18° C. in the dark by estimating % growth in the well. IC50-values (concentration of test compound resulting in 50% inhibition of fungal growth) were calculated from the resulting dose-response for each compound and strain.

[4] = system: Botrytis cinerea mutant G111E; experiment: Activity against Botrytis cinerea in the microtiter test, mutant G111E; settings: Botrytis cinerea, MUTANTG111E, 168 h, read-out: Absolute IC50, G111E, Botrytis cinerea mutant G111E; turbidity at 620 nm after 7 days
Text: as §1, §2, §3, §4, §5, §6, §7

[5] = system: Botrytis cinerea (sensitive, wild-type); experiment: Activity against Botrytis cinerea in the microtiter test, wild type; settings: 168 h, turbidity at 620 nm after 7 days, read-out: Absolute IC50, wild type
Method: as §1, §3, §4, §5, §7

[6] = system: Botrytis cinerea mutant V195F; experiment: Activity against Botrytis cinerea in the microtiter test, mutant V195F; settings: Botrytis cinerea, MUTANTV195F, 168 h, read-out: Absolute IC50, V195F, Botrytis cinerea mutant V195F; turbidity at 620 nm after 7 days
Text: as §1, §2, §3, §4, §5, §6, §7

[7] = system: Botrytis cinerea mutant Y208H; experiment: Activity against Botrytis cinerea in the microtiter test, mutant Y208H; settings: Botrytis cinerea, MUTANTY208H, 168 h, read-out: Absolute IC50, Y208H, Botrytis cinerea mutant Y208H; turbidity at 620 nm after 7 days
Text: as §1, §2, §3, §4, §5, §6, §7

Row | SMILES | IC50 [1] [µg/mL] | IC50 [2] [µg/mL] | IC50 [3] [µg/mL] | IC50 [4] [µg/mL] | IC50 [5] [µg/mL] | IC50 [6] [µg/mL] | IC50 [7] [µg/mL]
1 | Cc1cc(C2=NC(C)(C(C)(C)C)Oc3ccccc32)cnc1C(F)F (stereo not shown) [Ex-3] | 2.54 (≈ 7.38 µM) | 3.17 (≈ 9.2 µM) | 0.893 (≈ 2.59 µM) | 2.81 (≈ 8.16 µM) | 0.19 (≈ 0.552 µM) | 0.75 (≈ 2.18 µM) | –
2 | COc1ccc2c(c1)OC(C)(C)N=C2c1cnc(C(F)F)c(C)c1 [Ex-35] | 0.29 (≈ 0.873 µM) | 0.72 (≈ 2.17 µM) | 0.468 (≈ 1.41 µM) | 2.7 (≈ 8.12 µM) | 0.02 (≈ 0.0602 µM) | 0.05 (≈ 0.15 µM) | 2.02 (≈ 6.08 µM)
